Assays:
[1] = tested on: maximal electroshock-induced epilepsy model; assay: Maximal electroshock-induced epilepsy model, behavioral pharmacodynamics; assay type: in vivo; details: dose 5 mg/kg, oral, one hour before electrical stimulation; male CD-1 mice
From the text: Assay Example 2: Evaluation of the behavioral pharmacodynamics of the test compounds in a maximal electroshock-induced epilepsy model
This study used behavioral tests in male CD-1 mice to investigate the effects of test compounds on acute epileptic seizures behavior induced by maximal electroshock.
Male CD-1 mice (25 to 35g) were used as the experimental animals and fed with standard feed (Beijing Vital River Laboratory Animal Technology Co., Ltd.).
After arriving at the animal facility, the experimental animals needed to acclimatize for at least one week. The mice were observed daily for vital signs, and randomly divided into groups according to their body weights one day before the drug administration. One hour before the electrical stimulation, different dosages of the test compound were orally administered to each group. On the day of the assay, the male CD-1 mice in each group were anesthetized locally at the cornea with 2% lidocaine. Then, silver bipolar electrodes were used to electrically stimulate the cornea of the mice with 18 mA, 60 Hz, a pulse width of 0.6 ms, and a stimulation time of 1 s to induce seizures. Subsequently, the latency of seizures and the duration of limb rigidity in mice after the electrical stimulation were observed, and the protection rate from seizures for each group was statistically analyzed.

[2] = target: T1, CYP1A2 (Homo sapiens, UniProt P05177); assay: Drug-drug interaction evaluation: CYP inhibition in human liver microsomes (cocktail method)
T1 sequence (P05177 1-516): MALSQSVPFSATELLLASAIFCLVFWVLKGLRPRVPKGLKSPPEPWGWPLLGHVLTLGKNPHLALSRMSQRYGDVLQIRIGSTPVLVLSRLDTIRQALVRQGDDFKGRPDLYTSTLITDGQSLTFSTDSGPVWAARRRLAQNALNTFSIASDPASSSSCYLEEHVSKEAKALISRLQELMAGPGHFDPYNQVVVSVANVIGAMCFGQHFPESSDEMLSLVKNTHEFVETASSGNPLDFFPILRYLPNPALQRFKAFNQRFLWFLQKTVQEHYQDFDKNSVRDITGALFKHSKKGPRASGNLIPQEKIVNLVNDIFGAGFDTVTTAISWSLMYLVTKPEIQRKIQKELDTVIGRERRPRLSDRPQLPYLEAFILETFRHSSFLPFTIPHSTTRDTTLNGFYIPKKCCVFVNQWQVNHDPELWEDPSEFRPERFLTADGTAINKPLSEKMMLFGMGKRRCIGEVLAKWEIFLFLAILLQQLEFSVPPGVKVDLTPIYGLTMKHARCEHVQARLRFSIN
Procedure: (§1) The cocktail method using specific probe substrates for CYP1A2, CYP2C9, CYP2C19, CYP2D6 and CYP3A was used to evaluate the inhibitory effect of the compounds on the activity of human liver microsomal cytochrome P450 isoenzymes (CYP1A2, CYP2C9, CYP2C19, CYP2D6 and CYP3A).
(§2) Human liver microsomes, probe substrates, positive control inhibitors, and reduced nicotinamide adenine dinucleotide phosphate (NADPH).
(§3) To the corresponding wells of a reaction plate, 20 µL of substrate solution was added; to blank wells, 20 µL of potassium phosphate buffer was added.
(§4) To the corresponding wells, 2 µL of test compound and positive control working solution were added; to inhibitor-free and blank wells, 2 µL of solvent was added.
(§5) Human liver microsome working solution was prepared, and 158 µL of human liver microsome working solution was added to each well of the reaction plate.
(§6) The plate was pre-incubated at 37.0°C for 10 minutes.
(§7) To start the reaction, 20 µL of NADPH cofactor working solution was added to the reaction plate.
(§8) After incubation in a 37.0°C water bath with mixing for 10 minutes, 400 µL of stop solution was added to terminate the reaction.
(§9) The sample plate was centrifuged at 4000 rpm for 20 minutes.
(§10) 200 µL of supernatant was taken and mixed with 100 µL of pure water as diluent, and the plate was shaken to mix well.
(§11) Analysis was performed by liquid chromatography-tandem mass spectrometry (LC-MS/MS).
(§12) Using the percentage of remaining activity as the ordinate and the test compound concentration as the abscissa, a non-linear regression analysis was performed with a three-parameter or four-parameter model using XL fit software to calculate the IC50 value.
(§13) y = (max)/(1 + (((x)/(IC50)))^−hillslope) [formula]
(§14) y = min + (max−min)/(1 + (((x)/(IC50)))^−hillslope) [formula]
(§15) max = maximum enzyme activity; min = minimum enzyme activity; x = concentration of test compound or positive control inhibitor; y = enzyme activity at the corresponding concentration; hillslope = slope; IC50 = half-maximal inhibitory concentration. The four-parameter equation was used when the minimum enzyme activity was within ±10%; otherwise the three-parameter equation was used.

[3] = target: CYP2C19 (Homo sapiens, UniProt P33261); assay: as above
Procedure: as §1, §2, §3, §4, §5, §6, §7, §8, §9, §10, §11, §12, §13, §14, §15

[4] = target: CYP2C9 (Homo sapiens, UniProt P11712); assay: as above
Procedure: as §1, §2, §3, §4, §5, §6, §7, §8, §9, §10, §11, §12, §13, §14, §15

[5] = target: CYP2D6 (Homo sapiens, UniProt P10635); assay: as above
Procedure: as §1, §2, §3, §4, §5, §6, §7, §8, §9, §10, §11, §12, §13, §14, §15

[6] = target: CYP3A4 (Homo sapiens, UniProt P08684); assay: as above
Procedure: as §1, §2, §3, §4, §5, §6, §7, §8, §9, §10, §11, §12, §13, §14, §15

[7] = target: T2, hKCNQ2/3 (Homo sapiens, UniProt O43525+O43526); assay: cell-based
T2 construct: expressed in transfected cells; host or cells: CHO
From the text: Test Method 1: hKCNQ2/3 Thallium Flux Assay
Test Objective: To test the in vitro concentration-response relationship of compounds using FLIPR thallium flux assay in CHO cell lines stably expressing hKCNQ2/3.
According to the split ratio, the cells were transferred to another T-75 flask containing complete cell growth medium. Note: To maintain logarithmic growth, the cells should be kept in a subconfluent monolayer state. Based on the cell doubling time, the cells were passaged every 2-3 days.
• (1) Day 1 - Cell preparation: Cells were digested as described above, and cell density and viability were determined using a Cell Countess. The volume of the single-cell suspension was adjusted with complete cell growth medium. Then, hKCNQ2/3_CHO cells were seeded onto PDL-precoated 384-well plates at a density of approximately 20,000 cells/well (30 µL/well). The plates were then incubated overnight in a 37°C, 5% CO2 humidified air incubator. • (2) Day 2 - Compound preparation: Test compounds were diluted with dimethyl sulfoxide (DMSO) to stock concentrations and stored in a -20°C freezer. A compound addition program was set up on the ECHO liquid handler, and compounds were added to the plates using the ECHO liquid handler. Retigabine (RTG) was used as a positive control at a highest concentration of 100 µM with 3-fold serial dilutions for a total of 9 doses. Buffer containing 5 mM K^+ and 1 mM Tl^+ was added to the plates. Notes: 1) K2SO4 and Tl2SO4 were prepared in 1× chloride-free buffer. Depending on the voltage-gated potassium channel involved, the concentrations of Tl^+ and K^+ should be adjusted. Tl^+ concentration is approximately 0.5-5 mM, and K^+ concentration is approximately 5-30 mM. 2) Each 1 mM solution of K2SO4 and Tl2SO4 contains 2 mM K^+ and Tl^+; the final concentration should be calculated based on the ion concentration. 3) TlCl readily precipitates and a chloride-free buffer is required. • (3) Day 2 -Assay testing: Once the cells reached the desired confluence, the cell assay plates were removed from the incubator. Assay buffer and diluted Tl^+ dye (Molecular Devices # R8222) were prepared. The medium was discarded using a Bravo liquid handler, and 25 µL of Tl^+ dye was added to each well. After 1 hour of incubation, the cell assay plates, composite plates and FLIPR tips were placed in the FLIPR^TETRA (Molecular Devices, USA) for FLIPR detection. After setting up the tips, baseline readings were taken for 60 seconds, then 12.5 µL was added from the composite plate (3×) to the cell assay plate, and data were recorded for at least 5 minutes. • (4) Data processing: Maximum signals were generated by the FLIPR software. […] Data quality control: S/B > 2.00, Z factor > 0.50.
• (1) Day 1 - Cell preparation: Cells were digested as described above, and cell density and viability were determined using a Cell Countess. The volume of the single-cell suspension was adjusted with complete cell growth medium. Then, hKCNQ2/3_CHO cells were seeded onto PDL-precoated 384-well plates at a density of approximately 20,000 cells/well (30 µL/well). The plates were then incubated overnight in a 37°C, 5% CO2 humidified air incubator. • (2) Day 2 - Compound preparation: Test compounds were diluted with dimethyl sulfoxide (DMSO) to stock concentrations and stored in a -20°C freezer. A compound addition program was set up on the ECHO liquid handler, and compounds were added to the plates using the ECHO liquid handler. Retigabine (RTG) was used as a positive control at a highest concentration of 100 µM with 3-fold serial dilutions for a total of 9 doses. Buffer containing 5 mM K^+ and 1 mM Tl^+ was added to the plates. Notes: 1) K2SO4 and Tl2SO4 were prepared in 1× chloride-free buffer. Depending on the voltage-gated potassium channel involved, the concentrations of Tl^+ and K^+ should be adjusted. Tl^+ concentration is approximately 0.5 mM -5 mM, and K^+ concentration is approximately 5 mM -30 mM.

Sequence of CYP2D6 (P10635 whole entry): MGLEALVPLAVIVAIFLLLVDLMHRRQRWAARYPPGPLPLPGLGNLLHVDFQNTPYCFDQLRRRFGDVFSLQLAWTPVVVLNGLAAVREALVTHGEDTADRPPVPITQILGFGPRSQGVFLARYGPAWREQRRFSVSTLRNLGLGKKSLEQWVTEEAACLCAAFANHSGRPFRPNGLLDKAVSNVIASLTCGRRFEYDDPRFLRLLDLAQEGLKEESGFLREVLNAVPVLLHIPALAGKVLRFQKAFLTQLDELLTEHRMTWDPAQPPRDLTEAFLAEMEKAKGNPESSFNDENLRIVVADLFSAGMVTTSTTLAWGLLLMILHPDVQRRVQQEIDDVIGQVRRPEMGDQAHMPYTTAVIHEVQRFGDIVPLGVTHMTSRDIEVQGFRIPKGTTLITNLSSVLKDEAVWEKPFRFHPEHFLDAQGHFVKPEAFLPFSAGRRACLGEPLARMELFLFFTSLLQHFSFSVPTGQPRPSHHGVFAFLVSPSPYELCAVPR
Sequence of CYP2C19 (P33261 whole entry): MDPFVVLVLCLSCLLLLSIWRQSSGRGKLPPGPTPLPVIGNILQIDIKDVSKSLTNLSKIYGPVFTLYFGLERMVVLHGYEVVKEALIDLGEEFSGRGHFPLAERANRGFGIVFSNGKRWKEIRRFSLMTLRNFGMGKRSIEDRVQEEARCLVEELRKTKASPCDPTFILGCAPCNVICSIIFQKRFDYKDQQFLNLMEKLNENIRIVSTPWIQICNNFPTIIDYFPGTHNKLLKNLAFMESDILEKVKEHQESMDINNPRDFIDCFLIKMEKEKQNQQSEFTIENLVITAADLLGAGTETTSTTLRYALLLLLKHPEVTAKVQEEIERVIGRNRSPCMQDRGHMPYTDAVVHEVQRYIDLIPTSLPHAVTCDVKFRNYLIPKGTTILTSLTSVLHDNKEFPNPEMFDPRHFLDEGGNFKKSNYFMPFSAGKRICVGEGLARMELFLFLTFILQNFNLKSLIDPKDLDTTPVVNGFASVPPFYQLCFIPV
Sequence of CYP3A4 (P08684 2-503): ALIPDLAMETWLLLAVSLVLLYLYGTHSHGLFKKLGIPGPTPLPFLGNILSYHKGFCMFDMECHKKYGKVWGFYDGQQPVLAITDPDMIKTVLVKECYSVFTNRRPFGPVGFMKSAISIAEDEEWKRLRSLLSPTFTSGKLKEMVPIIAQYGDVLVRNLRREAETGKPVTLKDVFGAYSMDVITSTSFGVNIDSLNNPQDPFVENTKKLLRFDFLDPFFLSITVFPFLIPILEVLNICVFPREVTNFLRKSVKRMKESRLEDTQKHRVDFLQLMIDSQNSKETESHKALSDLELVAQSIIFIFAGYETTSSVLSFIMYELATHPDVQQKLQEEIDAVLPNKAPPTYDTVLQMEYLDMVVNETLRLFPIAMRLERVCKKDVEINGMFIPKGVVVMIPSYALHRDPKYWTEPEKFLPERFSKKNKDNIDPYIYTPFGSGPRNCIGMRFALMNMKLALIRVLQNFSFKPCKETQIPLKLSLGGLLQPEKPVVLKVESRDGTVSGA
Sequence of CYP2C9 (P11712 whole entry): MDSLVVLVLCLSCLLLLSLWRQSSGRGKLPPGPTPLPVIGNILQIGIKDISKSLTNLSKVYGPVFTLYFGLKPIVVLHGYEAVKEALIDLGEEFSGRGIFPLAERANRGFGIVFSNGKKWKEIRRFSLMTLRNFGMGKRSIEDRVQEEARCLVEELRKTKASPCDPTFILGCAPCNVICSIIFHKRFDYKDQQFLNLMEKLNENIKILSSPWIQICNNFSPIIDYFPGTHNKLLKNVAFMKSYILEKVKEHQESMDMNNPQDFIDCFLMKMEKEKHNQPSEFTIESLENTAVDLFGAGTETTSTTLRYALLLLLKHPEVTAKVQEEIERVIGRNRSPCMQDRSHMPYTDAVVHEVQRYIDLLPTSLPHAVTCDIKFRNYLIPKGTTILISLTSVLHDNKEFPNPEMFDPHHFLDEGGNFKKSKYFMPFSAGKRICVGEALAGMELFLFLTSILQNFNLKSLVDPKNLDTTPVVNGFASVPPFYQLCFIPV
T2 sequence (O43526 whole entry): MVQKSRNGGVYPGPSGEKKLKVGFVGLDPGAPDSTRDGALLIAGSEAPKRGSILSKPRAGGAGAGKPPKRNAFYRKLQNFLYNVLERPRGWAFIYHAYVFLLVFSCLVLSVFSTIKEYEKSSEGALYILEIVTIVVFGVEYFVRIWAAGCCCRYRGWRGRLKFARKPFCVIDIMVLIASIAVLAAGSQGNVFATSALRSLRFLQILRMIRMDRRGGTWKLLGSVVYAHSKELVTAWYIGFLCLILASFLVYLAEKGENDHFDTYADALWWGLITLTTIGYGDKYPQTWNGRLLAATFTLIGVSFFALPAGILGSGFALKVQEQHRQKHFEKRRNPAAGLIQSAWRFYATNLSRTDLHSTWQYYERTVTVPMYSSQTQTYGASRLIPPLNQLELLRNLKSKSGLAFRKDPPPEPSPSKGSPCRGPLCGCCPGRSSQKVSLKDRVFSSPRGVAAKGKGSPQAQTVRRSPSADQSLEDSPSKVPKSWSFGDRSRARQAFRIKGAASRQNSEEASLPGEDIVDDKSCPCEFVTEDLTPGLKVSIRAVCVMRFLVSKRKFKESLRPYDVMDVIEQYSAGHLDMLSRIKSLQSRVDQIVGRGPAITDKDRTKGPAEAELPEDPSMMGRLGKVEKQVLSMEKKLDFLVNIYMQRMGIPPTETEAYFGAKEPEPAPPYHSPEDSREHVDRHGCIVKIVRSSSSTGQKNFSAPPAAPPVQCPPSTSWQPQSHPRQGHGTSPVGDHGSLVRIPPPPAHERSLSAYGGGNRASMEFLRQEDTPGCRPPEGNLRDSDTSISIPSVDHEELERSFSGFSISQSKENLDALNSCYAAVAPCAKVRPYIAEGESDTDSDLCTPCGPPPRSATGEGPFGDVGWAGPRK
T2 sequence (O43525 whole entry): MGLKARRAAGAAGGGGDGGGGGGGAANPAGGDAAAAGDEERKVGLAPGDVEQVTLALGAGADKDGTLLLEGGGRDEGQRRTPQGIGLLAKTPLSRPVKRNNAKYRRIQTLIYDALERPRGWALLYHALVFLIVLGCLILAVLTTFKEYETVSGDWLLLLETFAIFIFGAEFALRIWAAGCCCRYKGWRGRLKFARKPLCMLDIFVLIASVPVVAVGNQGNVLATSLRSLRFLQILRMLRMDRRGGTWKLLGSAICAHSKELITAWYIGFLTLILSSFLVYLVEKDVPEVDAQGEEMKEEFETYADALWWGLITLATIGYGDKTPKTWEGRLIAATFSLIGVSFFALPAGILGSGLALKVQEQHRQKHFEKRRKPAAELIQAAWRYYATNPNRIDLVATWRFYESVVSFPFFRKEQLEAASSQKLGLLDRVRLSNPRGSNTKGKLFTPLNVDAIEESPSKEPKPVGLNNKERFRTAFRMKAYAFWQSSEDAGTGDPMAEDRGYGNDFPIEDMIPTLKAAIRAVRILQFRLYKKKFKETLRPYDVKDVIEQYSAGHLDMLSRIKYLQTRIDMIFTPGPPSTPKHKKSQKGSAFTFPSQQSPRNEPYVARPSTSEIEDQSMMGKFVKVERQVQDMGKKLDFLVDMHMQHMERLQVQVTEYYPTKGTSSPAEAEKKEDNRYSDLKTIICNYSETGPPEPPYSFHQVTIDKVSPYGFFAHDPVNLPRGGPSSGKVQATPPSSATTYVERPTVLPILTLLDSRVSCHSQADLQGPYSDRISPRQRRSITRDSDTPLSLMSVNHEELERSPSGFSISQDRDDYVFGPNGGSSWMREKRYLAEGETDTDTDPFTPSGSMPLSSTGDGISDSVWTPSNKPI

`Cc1cc(F)cnc1Nc1ccc2c(C)c(NC(=O)CC(C)(C)C)n(C)c2c1` [Compound 31] was tested, and the “Seizure incidence (%)” value [1] was 16.7%, the IC50 [2] was > 50 µM and the IC50 [3] was > 50 µM. For the same molecule, the IC50 [4] was > 50 µM, the IC50 [5] was > 50 µM and the IC50 [6] was > 50 µM.

With `Cc1c(NC(=O)CC2(C)CC2)n(C)c2cc(Nc3ncc(F)cc3F)ccc12` [Compound 35] the EC50 [7] was 0.49 µM, the IC50 [2] was > 50 µM and the IC50 [3] was > 50 µM. The IC50 [4] was > 50 µM, the IC50 [5] was > 50 µM and the IC50 [6] was > 50 µM.

— patent EP4810483A1, “6- AND 5-HETEROARYL DERIVATIVES AND USE THEREOF” (CMS Research & Development Pte. Ltd., priority 2023, dated 2025)
